The target in one data set is T1, SRC (Homo sapiens, UniProt P12931).
T1 construct: made in house; host or cells: Sf9 insect cells (baculovirus)
Briefly: 33PanQinase Activity Assay, SRC. The note with it: recombinant human protein kinase, 1 μM [γ-33P]-ATP, 30° C. 80 minutes. Format: biochemical. The method, then: (§1) The effect of the thioether derivatives 8a-v and 9a-i was tested on recombinant, human protein kinases. All protein kinases were expressed in Sf9 insect cells as human recombinant GST-fusion proteins or as His-tagged proteins by means of the baculovirus expression system. Protein kinases were purified by affinity chromatography using either GSH-agarose or Ni-NTH-agarose. The purity and identity of each was checked by SDS-PAGE/silver staining and by western blot analysis with specific antibodies.
(§2) A proprietary protein kinase assay (^33PanQinase® Activity Assay) was used for measuring the kinase activity. All kinase assays were performed in 96-well FlashPlates™ in a 50 μl reaction volume. The assay for all enzymes contained 60 mM HEPES-NaOH, pH 7.5, 3 mM MgCl2, 3 mM MnCl2, 3 μM Na-orthovanadate, 1.2 mM DTT, 50 μg/ml PEG20000 and 1 μM [γ-^33P]-ATP (approx. 5×10^5 cpm per well).
(§3) The reaction cocktails were incubated at 30° C. for 80 minutes. The reaction was stopped with 50 μl of 2% (v/v) H3PO4, plates were aspirated and washed two times with 200 μl of 0.9% (w/v) NaCl. Incorporation of ^33Pi was determined with a microplate scintillation counter. All assays were performed with a BeckmanCoulter/Sagian robotic system.

The next data set addresses T2, PIM1 (Homo sapiens, UniProt P11309).
T2 construct: made in house; host or cells: Sf9 insect cells (baculovirus)
Description: 33PanQinase Activity Assay, PIM1. Format: biochemical. As to conditions: recombinant human protein kinase, 1 μM [γ-33P]-ATP, 30° C. 80 minutes. As to the method: as §1, §2, §3

The target in a further data set is T3, VEGF-R2 (Homo sapiens, UniProt P35968).
T3 construct: made in house; host or cells: Sf9 insect cells (baculovirus)
Briefly: 33PanQinase Activity Assay, VEGF-R2. The data set is classed as biochemical. As to conditions: recombinant human protein kinase, 1 μM [γ-33P]-ATP, 30° C. 80 minutes. The method, then:
as §1, §2, §3

For a further data set, the target named is T4, AXL (Homo sapiens, UniProt P30530).
T4 construct: made in house; host or cells: Sf9 insect cells (baculovirus)
T4 sequence (P30530 26-894): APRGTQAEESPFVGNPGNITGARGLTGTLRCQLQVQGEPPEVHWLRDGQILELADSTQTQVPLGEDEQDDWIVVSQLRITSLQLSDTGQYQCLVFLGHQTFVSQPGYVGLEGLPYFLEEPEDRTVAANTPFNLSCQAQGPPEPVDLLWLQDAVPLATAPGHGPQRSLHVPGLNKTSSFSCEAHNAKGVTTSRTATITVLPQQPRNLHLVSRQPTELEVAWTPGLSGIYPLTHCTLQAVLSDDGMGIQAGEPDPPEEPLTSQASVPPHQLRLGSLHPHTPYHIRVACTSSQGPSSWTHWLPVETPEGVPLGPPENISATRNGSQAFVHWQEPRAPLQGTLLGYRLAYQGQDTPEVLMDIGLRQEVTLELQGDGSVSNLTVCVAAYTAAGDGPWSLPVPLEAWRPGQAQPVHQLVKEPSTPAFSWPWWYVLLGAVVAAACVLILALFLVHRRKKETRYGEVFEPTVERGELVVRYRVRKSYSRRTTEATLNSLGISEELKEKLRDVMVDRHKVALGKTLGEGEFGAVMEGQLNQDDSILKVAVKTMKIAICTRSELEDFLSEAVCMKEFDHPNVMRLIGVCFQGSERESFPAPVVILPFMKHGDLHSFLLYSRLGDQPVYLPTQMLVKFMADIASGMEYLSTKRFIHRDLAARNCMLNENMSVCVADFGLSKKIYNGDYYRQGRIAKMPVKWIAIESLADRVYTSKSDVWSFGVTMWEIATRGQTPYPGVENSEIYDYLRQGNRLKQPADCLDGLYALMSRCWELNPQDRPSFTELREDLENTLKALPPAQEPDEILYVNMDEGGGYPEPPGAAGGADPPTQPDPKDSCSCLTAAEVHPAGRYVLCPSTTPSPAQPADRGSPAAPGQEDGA
Briefly: 33PanQinase Activity Assay, AXL. Format: biochemical. As to conditions: recombinant human protein kinase, 1 μM [γ-33P]-ATP, 30° C. 80 minutes. As to the method:
as §1, §2, §3

A further data set deals with T5, IGF1-R (Homo sapiens, UniProt P08069).
T5 construct: made in house; host or cells: Sf9 insect cells (baculovirus)
T5 sequence (P08069 31-1367): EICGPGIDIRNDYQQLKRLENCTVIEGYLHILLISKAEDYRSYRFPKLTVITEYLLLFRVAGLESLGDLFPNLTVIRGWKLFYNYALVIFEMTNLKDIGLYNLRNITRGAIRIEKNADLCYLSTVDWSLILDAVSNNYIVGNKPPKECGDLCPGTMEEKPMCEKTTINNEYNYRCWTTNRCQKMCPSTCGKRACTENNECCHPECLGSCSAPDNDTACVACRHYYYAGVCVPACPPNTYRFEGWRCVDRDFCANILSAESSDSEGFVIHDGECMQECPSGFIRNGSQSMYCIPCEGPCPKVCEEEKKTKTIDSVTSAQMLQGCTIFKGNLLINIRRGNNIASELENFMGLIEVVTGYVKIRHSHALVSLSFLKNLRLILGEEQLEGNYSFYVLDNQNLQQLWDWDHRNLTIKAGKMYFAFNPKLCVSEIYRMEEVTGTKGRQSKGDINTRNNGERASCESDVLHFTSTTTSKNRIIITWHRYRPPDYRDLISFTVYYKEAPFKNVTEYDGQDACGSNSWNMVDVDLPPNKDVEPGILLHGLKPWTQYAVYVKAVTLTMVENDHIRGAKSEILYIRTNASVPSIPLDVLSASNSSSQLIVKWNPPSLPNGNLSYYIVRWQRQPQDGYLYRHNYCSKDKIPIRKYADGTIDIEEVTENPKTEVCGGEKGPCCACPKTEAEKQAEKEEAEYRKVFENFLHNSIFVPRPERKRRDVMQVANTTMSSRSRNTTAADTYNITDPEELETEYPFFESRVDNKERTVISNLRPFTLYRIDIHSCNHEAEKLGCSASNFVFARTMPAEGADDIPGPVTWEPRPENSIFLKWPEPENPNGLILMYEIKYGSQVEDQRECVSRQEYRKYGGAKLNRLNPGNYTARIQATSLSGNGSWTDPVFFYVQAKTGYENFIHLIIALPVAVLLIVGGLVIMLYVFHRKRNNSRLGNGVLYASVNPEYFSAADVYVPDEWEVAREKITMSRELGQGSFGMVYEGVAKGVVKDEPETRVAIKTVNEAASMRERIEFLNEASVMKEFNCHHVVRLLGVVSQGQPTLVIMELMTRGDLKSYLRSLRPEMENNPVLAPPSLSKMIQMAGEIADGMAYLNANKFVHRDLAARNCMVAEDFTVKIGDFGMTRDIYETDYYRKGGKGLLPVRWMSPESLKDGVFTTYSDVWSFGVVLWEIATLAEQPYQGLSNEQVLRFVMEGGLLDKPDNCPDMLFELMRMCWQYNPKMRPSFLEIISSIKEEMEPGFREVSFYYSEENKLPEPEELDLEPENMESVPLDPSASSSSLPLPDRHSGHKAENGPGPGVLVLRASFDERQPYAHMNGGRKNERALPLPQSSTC
Description: 33PanQinase Activity Assay, IGF1-R. The data set is classed as biochemical. The note with it: recombinant human protein kinase, 1 μM [γ-33P]-ATP, 30° C. 80 minutes. The method, then:
as §1, §2, §3

The next data set deals with T6, FAK (Homo sapiens, UniProt Q05397).
T6 construct: made in house; host or cells: Sf9 insect cells (baculovirus)
T6 sequence (Q05397 whole entry): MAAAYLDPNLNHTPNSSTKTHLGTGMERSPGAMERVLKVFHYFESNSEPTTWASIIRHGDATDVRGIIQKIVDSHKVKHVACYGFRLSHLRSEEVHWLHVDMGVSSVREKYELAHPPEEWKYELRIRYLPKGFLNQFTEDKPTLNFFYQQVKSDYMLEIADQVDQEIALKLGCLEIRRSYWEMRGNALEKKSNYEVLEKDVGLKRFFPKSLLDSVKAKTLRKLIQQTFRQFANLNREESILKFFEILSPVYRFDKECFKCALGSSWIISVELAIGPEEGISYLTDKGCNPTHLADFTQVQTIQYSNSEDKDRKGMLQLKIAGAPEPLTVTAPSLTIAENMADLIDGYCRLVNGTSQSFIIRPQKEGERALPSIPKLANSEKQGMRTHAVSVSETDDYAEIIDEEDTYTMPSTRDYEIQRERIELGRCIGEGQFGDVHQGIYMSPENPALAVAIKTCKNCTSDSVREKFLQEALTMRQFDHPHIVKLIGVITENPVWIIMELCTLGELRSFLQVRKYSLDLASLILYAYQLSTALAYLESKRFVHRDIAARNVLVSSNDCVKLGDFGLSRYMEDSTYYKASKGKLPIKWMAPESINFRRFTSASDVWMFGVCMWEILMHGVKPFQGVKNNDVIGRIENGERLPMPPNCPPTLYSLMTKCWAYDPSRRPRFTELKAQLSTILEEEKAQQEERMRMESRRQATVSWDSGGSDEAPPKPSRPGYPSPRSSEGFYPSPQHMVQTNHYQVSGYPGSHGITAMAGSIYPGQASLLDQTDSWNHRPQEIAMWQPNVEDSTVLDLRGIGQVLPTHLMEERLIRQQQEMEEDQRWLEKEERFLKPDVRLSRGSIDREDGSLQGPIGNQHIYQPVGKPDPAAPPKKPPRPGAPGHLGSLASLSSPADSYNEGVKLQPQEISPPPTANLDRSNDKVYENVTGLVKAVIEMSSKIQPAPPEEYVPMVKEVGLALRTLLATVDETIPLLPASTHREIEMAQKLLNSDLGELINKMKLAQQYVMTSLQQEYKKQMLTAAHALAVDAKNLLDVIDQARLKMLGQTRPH
Briefly: 33PanQinase Activity Assay, FAK. As to conditions: recombinant human protein kinase, 1 μM [γ-33P]-ATP, 30° C. 80 minutes. The data set is classed as biochemical. The method, then:
as §1, §2, §3

In another data set the target is T7, ALK (Homo sapiens, UniProt Q9UM73).
T7 construct: made in house; host or cells: Sf9 insect cells (baculovirus)
T7 sequence (Q9UM73 19-1620): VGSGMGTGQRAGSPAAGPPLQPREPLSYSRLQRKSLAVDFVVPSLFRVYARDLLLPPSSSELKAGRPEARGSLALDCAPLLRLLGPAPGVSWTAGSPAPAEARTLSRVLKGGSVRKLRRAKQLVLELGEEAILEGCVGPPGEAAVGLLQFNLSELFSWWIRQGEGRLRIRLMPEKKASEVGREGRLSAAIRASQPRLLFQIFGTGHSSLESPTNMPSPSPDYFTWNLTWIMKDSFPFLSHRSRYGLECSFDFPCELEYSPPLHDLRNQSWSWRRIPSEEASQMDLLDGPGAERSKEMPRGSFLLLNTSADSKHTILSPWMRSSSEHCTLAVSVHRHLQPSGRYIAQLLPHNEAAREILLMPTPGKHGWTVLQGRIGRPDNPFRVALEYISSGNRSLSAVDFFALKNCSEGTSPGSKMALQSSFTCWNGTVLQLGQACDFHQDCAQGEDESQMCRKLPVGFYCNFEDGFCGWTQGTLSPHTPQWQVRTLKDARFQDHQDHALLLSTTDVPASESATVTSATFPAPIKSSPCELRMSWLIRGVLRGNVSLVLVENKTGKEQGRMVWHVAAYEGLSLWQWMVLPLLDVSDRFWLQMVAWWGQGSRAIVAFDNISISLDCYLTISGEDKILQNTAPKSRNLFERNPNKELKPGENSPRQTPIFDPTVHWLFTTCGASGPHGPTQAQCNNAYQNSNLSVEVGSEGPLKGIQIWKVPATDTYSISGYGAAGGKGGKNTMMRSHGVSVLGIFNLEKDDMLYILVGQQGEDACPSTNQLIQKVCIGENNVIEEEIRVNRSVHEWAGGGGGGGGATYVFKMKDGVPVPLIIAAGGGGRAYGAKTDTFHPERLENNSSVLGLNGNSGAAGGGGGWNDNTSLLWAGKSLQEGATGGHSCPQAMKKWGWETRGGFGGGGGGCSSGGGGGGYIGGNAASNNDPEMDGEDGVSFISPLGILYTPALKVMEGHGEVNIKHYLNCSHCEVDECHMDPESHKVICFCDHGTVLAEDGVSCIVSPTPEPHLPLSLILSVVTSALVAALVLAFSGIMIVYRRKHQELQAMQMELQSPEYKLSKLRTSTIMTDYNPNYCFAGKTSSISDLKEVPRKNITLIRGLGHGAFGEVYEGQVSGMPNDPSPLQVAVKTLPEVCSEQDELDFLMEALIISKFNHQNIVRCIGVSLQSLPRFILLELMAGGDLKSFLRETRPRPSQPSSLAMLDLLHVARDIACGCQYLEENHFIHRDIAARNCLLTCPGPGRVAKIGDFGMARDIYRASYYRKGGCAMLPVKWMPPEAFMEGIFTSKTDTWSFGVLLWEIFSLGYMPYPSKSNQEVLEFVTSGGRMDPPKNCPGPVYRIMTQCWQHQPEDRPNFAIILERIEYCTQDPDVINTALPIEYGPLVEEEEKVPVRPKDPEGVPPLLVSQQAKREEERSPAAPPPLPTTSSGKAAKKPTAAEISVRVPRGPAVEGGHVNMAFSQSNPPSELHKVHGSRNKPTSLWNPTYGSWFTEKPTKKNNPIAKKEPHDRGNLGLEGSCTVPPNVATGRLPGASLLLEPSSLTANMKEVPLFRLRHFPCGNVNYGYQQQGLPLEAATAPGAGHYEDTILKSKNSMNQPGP
Briefly: 33PanQinase Activity Assay, ALK. As to conditions: recombinant human protein kinase, 1 μM [γ-33P]-ATP, 30° C. 80 minutes. Format: biochemical. The method, then:
as §1, §2, §3

The next data set deals with T8, PRK1 (Homo sapiens, UniProt Q16512).
T8 construct: made in house; host or cells: Sf9 insect cells (baculovirus)
Description: 33PanQinase Activity Assay, PRK1. The note with it: recombinant human protein kinase, 1 μM [γ-33P]-ATP, 30° C. 80 minutes. The data set is classed as biochemical. As to the method: as §1, §2, §3

Data set [1] concerns the target T9, ALK, AXL, FAK, KIT wt, IGF1-R, PIM1, PRK1, SRC and VEGF-R2.
T9 construct: other: at le; fused on or other part: GST or His tag
Description: 33PanQinase Activity Assay, kinase panel summary. Format: biochemical, human. The note with it: at least two kinases of the panel; read-out: IC50 values on at least two kinases from at least two different molecular mechanisms of tumor progression. As to the method: as §1, §2, §3
Thioether derivatives 8a-v and 9a-i show excellent IC50 values.

pIC50: −log10 of the molar value.

T2 sequence (P11309 whole entry): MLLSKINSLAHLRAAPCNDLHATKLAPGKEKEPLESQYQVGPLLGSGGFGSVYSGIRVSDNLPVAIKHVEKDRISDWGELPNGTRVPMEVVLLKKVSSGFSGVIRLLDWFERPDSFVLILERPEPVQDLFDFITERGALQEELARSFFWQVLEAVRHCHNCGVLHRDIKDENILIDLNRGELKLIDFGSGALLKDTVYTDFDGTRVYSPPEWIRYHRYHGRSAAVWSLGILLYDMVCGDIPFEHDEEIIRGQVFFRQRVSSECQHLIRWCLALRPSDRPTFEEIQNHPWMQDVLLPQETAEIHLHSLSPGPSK
T1 sequence (P12931 whole entry): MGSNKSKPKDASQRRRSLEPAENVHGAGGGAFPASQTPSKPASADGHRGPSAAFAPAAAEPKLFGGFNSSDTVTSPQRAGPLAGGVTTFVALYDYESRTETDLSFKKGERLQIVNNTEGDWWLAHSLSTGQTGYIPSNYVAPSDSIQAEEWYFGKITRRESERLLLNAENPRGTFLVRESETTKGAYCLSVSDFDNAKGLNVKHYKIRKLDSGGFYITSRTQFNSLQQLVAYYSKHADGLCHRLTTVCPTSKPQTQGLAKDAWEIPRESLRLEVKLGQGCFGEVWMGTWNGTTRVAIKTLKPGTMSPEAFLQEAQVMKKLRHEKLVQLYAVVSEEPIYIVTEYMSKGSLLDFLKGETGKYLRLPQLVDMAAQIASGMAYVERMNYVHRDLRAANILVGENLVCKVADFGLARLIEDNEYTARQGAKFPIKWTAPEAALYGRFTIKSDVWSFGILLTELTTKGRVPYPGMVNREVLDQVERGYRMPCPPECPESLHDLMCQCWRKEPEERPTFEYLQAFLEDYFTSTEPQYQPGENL

In the case of `O=S1(=O)CCC(Cc2nnc(Sc3ncnc4cc(-c5ccc(F)cc5)sc34)o2)C1` (centres unmarked) [Compound 8k, 3-{[5-({6-[4-Fluorophenyl]thieno[3,2-d]pyrimidin-4-yl}thio)-1,3,4-oxadiazol-2-yl]methyl}-tetrahydrothiophene-1,1-dioxide], the melting point – broadly, the temperature of the solid-liquid transition – lay within 180 to 182 °C. Further, the pIC50 (usually the IC50 on a negative log10 scale, so that one unit is a factor of ten) at SRC is 5.58. The pIC50 on PIM1 was 4.58. In addition, the pIC50 at VEGF-R2 was 5.69. The pIC50 at AXL was 5.34. Besides, the pIC50 at IGF1-R is 5.12. The negative-log IC50 (pIC50) on FAK is 5.24. Besides, the pIC50 at ALK is 5.53.

As for `Fc1ccc(-c2cc3ncnc(Sc4nnc(-c5ccc(C(F)(F)F)cc5)o4)c3s2)cc1` [Compound 8e, 2-{[6-(4-Fluorophenyl)thieno[3,2-d]pyrimidin-4-yl]thio}-5-[4-(trifluoromethyl)-phenyl]-1,3,4-oxadiazole], the melting point was 233 to 235 °C. For the same compound, on SRC, the pIC50 was 6.27. For the same compound, the pIC50 at PIM1 was 5.06. At VEGF-R2, the pIC50 was 5.85. In addition, the negative logarithm of the IC50 (pIC50) on PRK1 is 4.81. For the same compound, at AXL, the pIC50 was 5.60. In addition, the pIC50 at IGF1-R was 5.99. At FAK, the pIC50 is 5.71. For the same compound, the pIC50 on ALK is 6.01.

`CC(C)(C)c1nnc(Sc2ncnc3cc(-c4ccc(F)cc4)sc23)o1` [Compound 8g, 2-(tert-Butyl)-5-{[6-(4-fluorophenyl)thieno[3,2-d]pyrimidin-4-yl]thio}-1,3,4-oxadiazole]: the melting point fell in the range of 197 to 199 °C. In addition, the negative logarithm of the IC50 (pIC50) on SRC is 5.60. At PIM1, the pIC50 was 4.64. Also, the pIC50 on VEGF-R2 is 5.39. Moreover, the pIC50 on AXL was 5.21. At IGF1-R, the negative-log IC50 (pIC50) is 5.48. Besides, the pIC50 at FAK is 5.32. Further, at ALK, the pIC50 is 5.63.

Compound `Fc1ccc(-c2cc3ncnc(Sc4ccccn4)c3s2)cc1` [Compound 8j, 6-(4-Fluorophenyl)-4-(pyridin-2-ylthio)thieno[3,2-d]pyrimidine] gave a melting point of 172 to 174 °C. Also, the negative-log IC50 (pIC50) on SRC is 5.20. Further, the pIC50 at VEGF-R2 is 5.01. Moreover, the pIC50 on PRK1 is 4.33. Besides, the pIC50 at AXL is 4.65. Also, the negative-log IC50 (pIC50) on IGF1-R is 5.04. In addition, the pIC50 at FAK is 5.04. The pIC50 at ALK is 5.18.

For the compound `Fc1ccc(-c2cc3ncnc(Sc4ncc[nH]4)c3s2)cc1` [Compound 8i, 4-[(1H-imidazol-2-yl)thio]-6-(4-fluorophenyl)thieno[3,2-d]pyrimidine], the melting point lay within 204 to 206 °C. Also, the negative logarithm of the IC50 (pIC50) on SRC is 4.96. In addition, the pIC50 on PIM1 was 4.95. Besides, the pIC50 at VEGF-R2 is 4.68. Also, the pIC50 on PRK1 is 4.06. Moreover, the pIC50 at AXL was 4.38. For the same compound, the pIC50 at IGF1-R was 4.64. Besides, the pIC50 at FAK is 4.66. The pIC50 at ALK is 4.63.

In the case of `Fc1ccc(-c2cc3ncnc(Sc4ccc(C(F)(F)F)cc4)c3s2)cc1` [Compound 8h, 6-(4-Fluorophenyl)-4-{[4-(trifluoromethyl)phenyl]thio}thieno[3,2-d]pyrimidine], the melting point fell in the range of 172 to 175 °C. The pIC50 at SRC was 6.17. The pIC50 on PIM1 was 4.95. Besides, the pIC50 at VEGF-R2 was 5.74. The pIC50 on PRK1 was 4.47. The pIC50 at AXL was 5.53. The pIC50 at IGF1-R is 5.86. For the same compound, the pIC50 on FAK was 5.69. For the same compound, the pIC50 on ALK is 5.99.

`COc1cccc(Cc2nnc(Sc3ncnc4cc(-c5ccc(F)cc5)sc34)o2)c1` [Compound 8f, 2-{[6-(4-Fluorophenyl)thieno[3,2-d]pyrimidin-4-yl]thio}-5-(3-methoxybenzyl)-1,3,4-oxadiazole] had a melting point of 166 to 168 °C. Besides, on SRC, the pIC50 was 6.31. In addition, the pIC50 on PIM1 was 4.98. At VEGF-R2, the pIC50 is 5.83. In addition, on PRK1, the pIC50 is 4.84. Besides, the pIC50 on AXL is 5.49. In addition, on IGF1-R, the pIC50 was 5.90. The pIC50 at FAK is 5.89. For the same compound, on ALK, the negative-log IC50 (pIC50) was 6.19.

For `FC(F)(F)c1ccc(-c2nnc(Sc3ncnc4[nH]c(-c5ccccc5)nc34)o2)cc1` [Compound 8v, 2-[(8-Phenyl-9H-purin-6-yl)thio]-5-[4-(trifluoromethyl)phenyl]-1,3,4-oxadiazole], the melting point was 256 to 257 °C. The pIC50 on SRC was 6.15. Also, the pIC50 on AXL is < 4.00. In addition, the pIC50 in data set [1] was > 5.00. Further, on FAK, the negative logarithm of the IC50 (pIC50) is 6.03. Moreover, the pIC50 on ALK is 6.07.

In the case of `Fc1ccc(-c2cc3ncnc(Sc4nnc(Cc5ccccc5)o4)c3s2)cc1` [Compound 8l, 2-Benzyl-5-{[6-(4-fluorophenyl)thieno[3,2-d]pyrimidin-4-yl]thio}-1,3,4-oxadiazole], the pIC50 on SRC was 6.06; at PIM1 it was 4.86; on VEGF-R2, 5.65; on PRK1 it was 4.42; at AXL, 5.50; on IGF1-R it was 5.82. The figures for the pIC50 on FAK and on ALK were 5.52 and 5.94, respectively.

(Values after patent publication US9925193B2, “Thioether derivatives as protein kinase inhibitors” (KTB TUMORFORSCHUNGSGESELLSCHAFT MBH, priority 2012, dated 2018).)
